# Reference: US10214492B2, “Heterocyclic inhibitors of MCT4” (Vettore, LLC, priority 2016, dated 2019)
# How the values were obtained:
# MCT1 = MCT1 (Homo sapiens (Human), UniProt P53985); assay: Assay 4: MCT1-mediated lactate transport in BT20 breast cancer cells; format: cell-based; details: Table 27
# Procedure, shortened: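 BT20 cells loaded with BCECF-AM (30 mM DMSO stock) for 5 min at 37° C, washed and resuspended in Tyrode's Solution pH 7.4. Lactate uptake tracked via BCECF intracellular pH signal after adding 10 mM L-lactate.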
# [1] = Pharmacokinetic assay in rat (IV 3 mg/kg, PO 10 mg/kg); format: in vivo; details: Male Sprague-Dawley rat; for Rat F: oral bioavailability; for Rat F / half-life: PO 10 mg/kg; for half-life / Vd: plasma; for half-life: read-out: Rat t1/2 (converted); for Vd: volume of distribution, read-out: Rat Vss
# Description: (§1) The following are assays that may be used to evaluate the pharmacokinetic properties of Formula (I) in mouse or rat. The assays follow a common procedure recited below.
# (§2) 1. […] For PO (oral gavage), DMSO/PEG400 (10:90). Formulations freshly prepared on the day of dosing or prior to dosing. Storage at room temperature.
# (§3) 2. Test Species: For Mouse: Male CD1 strain, approximately 6-8 weeks in age, approximately 20-30 g. For Rat: Male Sprague-Dawley strain, approximately 6-8 weeks in age, approximately 200-300 g.
# (§4) 3. Dose Level: For IV, 3 mg/kg. For PO, 10 mg/kg.
# (§5) 4. Number of animals: 3 per assay.
# (§6) 5. PK time points: For IV (plasma): 5 min, 15 min, 1, 2, 4, 6, 8, 24 h post dose. For PO (plasma): 15 min, 30 min, 1, 2, 4, 6, 8, 24 h post dose.
# (§7) 6. Blood Sample Collection and Processing. Blood was collected (˜0.2 mL per time point) from jugular vein. Blood of each sample was transferred into plastic micro centrifuge tubes containing anticoagulant of EDTA-K2. Blood samples were centrifuged at 2,000 g for 5 minutes at 4° C. to obtain plasma.
# (§8) 7. Samples Analysis: Plasma samples were analyzed using LC/MS/MS method, and pharmacokinetic parameters (half-life: t1/2; oral bioavailability: F; volume of distribution: Vss).
# [2] = Metabolic stability in human liver microsomes (in vitro t1/2); format: in vitro ADME; details: for half-life at 2 µM: read-out: Human microsome t1/2, min; for Human microsome % 60 min: human liver microsomes
# Procedure, shortened: (§9)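 Liver microsomes (0.5 mg/mL final) incubated with test compound at 2 μM final plus NADPH; samples taken at 0, 15, 30, 45 and 60 min. Parent remaining quantified by LC-MS/MS; k from ln(% remaining) vs time regression, in vitro t1/2 = −0.693/k.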
# [3] = Adjuvant-induced arthritis model in rat: Mechanical Allodynia test (MA, Von Frey); format: in vivo; details: SD rat, CFA-induced arthritis; PO 3 days post CFA; compared to Dexamethasone
# [4] = Metabolic stability in rat liver microsomes (in vitro t1/2); format: in vitro ADME; details: for half-life at 2 µM: rat liver microsomes 0.5 mg/mL, 2 μM compound, read-out: Rat microsome t1/2, min; for Rat microsome % 60 min: rat liver microsomes
# Procedure, shortened: as §9
# [5] = Adjuvant-induced arthritis model in rat: Difference of Weight Bearing test (DWB); format: in vivo; details: SD rat, CFA-induced arthritis; PO 3 days post CFA; compared to Dexamethasone
# [6] = Metabolic stability in mouse liver microsomes (in vitro t1/2); format: in vitro ADME; details: for half-life at 2 µM / Mouse microsome t1/2, min: mouse liver microsomes 0.5 mg/mL, 2 μM compound; for half-life at 2 µM: read-out: Mouse microsome t1/2, min; for Mouse microsome % 60 min: mouse liver microsomes
# Procedure, shortened: as §9
# [7] = Pharmacokinetic assay in mouse (IV 3 mg/kg, PO 10 mg/kg); format: in vivo; details: Male CD1 mouse; for Mouse F: oral bioavailability; for Mouse F / half-life: PO 10 mg/kg; for half-life / Vd: plasma; for half-life: read-out: Mouse t1/2 (converted); for Vd: volume of distribution, read-out: Mouse Vss
# Description: as §1, §2, §3, §4, §5, §6, §7, §8
# MCT4 = MCT4 (Homo sapiens (Human), UniProt O15427); assay: Assay 3: MCT4-mediated lactate transport in MDA-MB-231 breast cancer cells; format: cell-based; details: MDA-MB-231 cells; lactate transport
# Procedure, shortened: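 MDA-MB-231 cells loaded with BCECF-AM, 5 min at 37° C, washed and resuspended in Tyrode's Solution, pH 7.4. MCT4 lactate/proton symport followed as the intracellular pH change reported by BCECF fluorescence.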
# [8] = human liver microsomes 0.5 mg/mL, 2 μM compound
# Sequence of MCT4 (O15427 whole entry, looked up): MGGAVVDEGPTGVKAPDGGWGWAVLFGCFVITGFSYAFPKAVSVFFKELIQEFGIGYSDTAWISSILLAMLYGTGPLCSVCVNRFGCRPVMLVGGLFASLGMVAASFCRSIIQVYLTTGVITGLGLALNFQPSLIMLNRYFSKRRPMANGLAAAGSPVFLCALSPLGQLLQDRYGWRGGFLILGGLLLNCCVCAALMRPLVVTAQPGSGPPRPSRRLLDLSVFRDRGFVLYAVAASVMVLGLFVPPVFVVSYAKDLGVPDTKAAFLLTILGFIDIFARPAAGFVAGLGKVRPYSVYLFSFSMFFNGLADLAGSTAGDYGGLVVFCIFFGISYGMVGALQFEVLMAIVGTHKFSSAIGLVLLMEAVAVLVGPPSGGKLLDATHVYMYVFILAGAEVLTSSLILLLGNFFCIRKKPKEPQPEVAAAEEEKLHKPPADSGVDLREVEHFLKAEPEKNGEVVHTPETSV
# Sequence of MCT4 (P35613 whole entry partner, looked up): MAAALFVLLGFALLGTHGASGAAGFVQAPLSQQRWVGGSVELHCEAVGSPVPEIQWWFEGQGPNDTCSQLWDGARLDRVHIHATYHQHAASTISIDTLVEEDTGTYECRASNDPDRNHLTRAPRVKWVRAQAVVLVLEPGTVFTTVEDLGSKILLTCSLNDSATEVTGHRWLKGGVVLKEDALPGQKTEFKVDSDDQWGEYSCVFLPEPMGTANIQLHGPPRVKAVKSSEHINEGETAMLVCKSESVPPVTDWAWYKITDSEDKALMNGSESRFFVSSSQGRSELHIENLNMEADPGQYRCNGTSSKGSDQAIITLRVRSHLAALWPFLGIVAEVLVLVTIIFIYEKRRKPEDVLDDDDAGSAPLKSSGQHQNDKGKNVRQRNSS
# Sequence of MCT1 (P53985 whole entry): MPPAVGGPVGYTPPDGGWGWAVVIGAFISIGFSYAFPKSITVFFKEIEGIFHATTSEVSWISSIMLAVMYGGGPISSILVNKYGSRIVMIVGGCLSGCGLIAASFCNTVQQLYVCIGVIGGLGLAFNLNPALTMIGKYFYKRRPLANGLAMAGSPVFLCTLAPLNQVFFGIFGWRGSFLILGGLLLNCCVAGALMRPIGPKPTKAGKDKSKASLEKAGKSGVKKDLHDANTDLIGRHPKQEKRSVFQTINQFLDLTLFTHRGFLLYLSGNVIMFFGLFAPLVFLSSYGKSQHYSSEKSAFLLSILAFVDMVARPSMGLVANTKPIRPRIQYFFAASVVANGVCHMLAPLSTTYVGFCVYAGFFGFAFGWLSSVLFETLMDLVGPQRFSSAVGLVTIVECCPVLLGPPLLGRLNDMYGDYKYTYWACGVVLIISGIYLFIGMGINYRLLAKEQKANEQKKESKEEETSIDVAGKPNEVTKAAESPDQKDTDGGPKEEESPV
# Sequence of MCT1 (P35613 140-385 partner): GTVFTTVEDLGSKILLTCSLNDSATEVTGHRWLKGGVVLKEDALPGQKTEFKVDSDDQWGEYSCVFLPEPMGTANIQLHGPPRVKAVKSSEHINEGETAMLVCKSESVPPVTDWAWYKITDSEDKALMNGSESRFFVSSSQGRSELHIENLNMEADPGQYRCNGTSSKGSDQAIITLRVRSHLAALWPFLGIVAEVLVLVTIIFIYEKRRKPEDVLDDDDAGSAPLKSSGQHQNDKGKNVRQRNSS
SMILES,IC50 (MCT1),Rat F [1],half-life [1],Vd [1],"half-life at 2 µM [2, 8]",Human microsome % 60 min [2],half-life at 2 µM [4],Rat microsome % 60 min [4],half-life at 2 µM [6],Mouse microsome % 60 min [6],Mouse F [7],half-life [7],Vd [7],IC50 (MCT4),"Human microsome t1/2, min [2, 8]","Mechanical Allodynia (Von Frey), Minimal Efficacious Dose [3]","Difference in Weight Bearing, Minimal Efficacious Dose [5]","Mouse microsome t1/2, min [6]"
"CC(C)(OCc1cc(-c2cccc(OC3CCC3)c2)n(-c2ccccc2N2CCC2)n1)C(=O)O [Example 260, 2-([1-[2-(Azetidin-1-yl)phenyl]-5-(3-cyclobutoxyphenyl)-1H-pyrazol-3-yl]methoxy)-2-methylpropanoic acid]",26000 nM,85%,3.7 h,0.2 L/kg,–,–,–,–,–,–,86%,5.2 h,0.22 L/kg,0.83 nM,–,1 mg/kg,1 mg/kg,–
"CCn1ncc2ccc(-c3cc(CO[C@](C)(CC)C(=O)O)nn3Cc3ccccc3Cl)cc21 [Example 220, (2R)-2-([1-[(2-chlorophenyl)methyl]-5-(1-ethyl-1H-indazol-6-yl)-1H-pyrazol-3-yl]methoxy)-2-methylbutanoic acid]",33000 nM,29%,2.8 h,0.68 L/kg,–,105%,4.87 h,86%,17.3 h,102%,100%,6.9 h,1.7 L/kg,0.54 nM,∞,3 mg/kg,3 mg/kg,–
CC[C@@](C)(OCc1cc(-c2cccc(OC3CC3)c2)n(-c2ccccc2N2CCC2)n1)C(=O)O [Example 266],64000 nM,100%,2.7 h,0.23 L/kg,–,–,–,–,–,–,100%,3.8 h,0.36 L/kg,0.36 nM,–,3 mg/kg,3 mg/kg,–
"CC(C)(OCc1cc(-c2cccc(OC3CC3)c2)n(-c2ccccc2Cl)n1)C(=O)O [Example 110, 2-([1-(2-Chlorophenyl)-5-(3-cyclo-propoxyphenyl)-1H-pyrazol-3-yl)methoxy)-2-methylpropanoic acid]",30000 nM,84%,4.7 h,0.34 L/kg,39.6 h,99%,9.15 h,94%,3.72 h,86%,100%,26.7 h,0.81 L/kg,20 nM,–,10 mg/kg,10 mg/kg,–
"Cc1ccccc1-n1nc(COC(C)(C)C(=O)O)cc1-c1cccc(OC2CCC2)c1 [Example 161, 2-([5-(3-Cyclobutoxyphenyl)-1-(2-methyl-phenyl)-1H-pyrazol-3-yl]methoxy)-2-methylpropanoic acid]",22000 nM,61%,5.7 h,0.32 L/kg,3.23 h,82%,4.32 h,80%,–,99%,–,–,–,3.3 nM,–,≤10 mg/kg,≤10 mg/kg,∞
"COc1cccc(-c2cc(COC(C)(C)C(=O)O)nn2Cc2ccccc2Cl)c1 [Example 14, 2-([1-[(2-Chlorophenyl)methyl]-5-(3-methoxyphenyl)1H-pyrazol-3-yl]methoxy)-2-methylpropanoic acid]",–,64%,3.8 h,1.3 L/kg,4.08 h,82%,–,–,21.7 h,95%,100%,5.4 h,0.79 L/kg,–,–,30 mg/kg,30 mg/kg,–
"CCn1ncc2ccc(-c3cc(CO[C@](C)(CC)C(=O)O)nn3-c3ccccc3N3CCCC3)cc21 [Example 268, (2R)-2-([5-(1-ethyl-1H-indazol-6-yl)-1-[2-(pyrrolidin-1-yl)phenyl)-1H-pyrazol-3-yl]methoxy)-2-methylbutanoic acid]",36000 nM,57%,2.2 h,0.76 L/kg,–,–,–,–,–,–,77%,2.7 h,0.77 L/kg,0.3 nM,–,1 mg/kg,1 mg/kg,–

# Further compounds by falling IC50 (MCT1), results first:
IC50 (MCT1),Rat F [1],half-life [1],Vd [1],"half-life at 2 µM [2, 8]",Human microsome % 60 min [2],half-life at 2 µM [4],Rat microsome % 60 min [4],half-life at 2 µM [6],Mouse microsome % 60 min [6],Mouse F [7],half-life [7],Vd [7],IC50 (MCT4),"Human microsome t1/2, min [2, 8]",SMILES,"Mechanical Allodynia (Von Frey), Minimal Efficacious Dose [3]","Difference in Weight Bearing, Minimal Efficacious Dose [5]","Mouse microsome t1/2, min [6]"
29000 nM,52%,2.6 h,0.15 L/kg,1.62 h,65%,1.17 h,50%,1.22 h,59%,56%,3.1 h,0.21 L/kg,2.1 nM,–,"CC(C)(OCc1cc(-c2cccc(OC3CC3)c2)n(-c2ccccc2N2CCC2)n1)C(=O)O [Example 232, 2-([1-[2-(Azetidin-1-yl)phenyl]-5-(3-cyclo-propoxyphenyl)-1H-pyrazol-3-yl]methoxy)-2-methylpropanoic acid]",1 mg/kg,1 mg/kg,–
25000 nM,43%,3.6 h,1.2 L/kg,5.68 h,90%,28.6 h,98%,–,103%,89%,4.9 h,9.9 L/kg,2.8 nM,–,"CCn1ncc2ccc(-c3cc(COC(C)(C)C(=O)O)nn3Cc3ccccc3Cl)cc21 [Example 150, 2-([1-[(2-Chlorophenyl)methyl]-5-(1-ethyl-1H-indazol-6-yl)-1H-pyrazol-3-yl]-methoxy)-2-methylpropanoic Acid]",10 mg/kg,10 mg/kg,∞
11000 nM,54%,2.6 h,7.7 L/kg,–,–,–,–,–,–,64%,3.3 h,3.9 L/kg,0.57 nM,–,"CCCn1ncc2ccc(-c3cc(CO[C@](C)(CC)C(=O)O)nn3-c3ccccc3N3CCC3)cc21 [Example 267, (2R)-2-([1-(2-(azetidin-1-yl)phenyl]-5-(1-propyl-1H-indazol-6-yl)-1H-pyrazol-3-yl]methoxy)-2-methylbutanoic acid]",3 mg/kg,3 mg/kg,–
10000 nM,100%,4.6 h,2.5 L/kg,–,–,–,–,–,–,94%,2.7 h,1.1 L/kg,0.35 nM,–,"CCOc1ccccc1Cn1nc(CO[C@](C)(CC)C(=O)O)cc1-c1cc(OC)cc(OC)c1 [Example 264, (2R)-2-([5-(3,5-Dimethoxyphenyl)-1-[(2-ethoxyphenyl)methyl]-1H-pyrazol-3-yl]methoxy)-2-methylbutanoic acid]",1 mg/kg,1 mg/kg,–
